Reference: the NIST ThermoML archive (doi:10.1016/j.jct.2019.01.007)
“And” between values parts separate entries of the source, which are not always exact repeats. Equal values may be shown once.

Settings: Liquid

CCCCCCCCCC(=O)OC [methyl decanoate]
Settings | vapor or sublimation pressure
273.35 K | 0.0004731 kPa
273.84 K | 0.0004984 kPa
274.32 K | 0.0005246 kPa
274.8 K | 0.0005538 kPa
275.29 K | 0.0005879 kPa
275.77 K | 0.0006152 kPa
276.26 K | 0.0006487 kPa
276.74 K | 0.0006849 kPa
277.23 K | 0.0007225 kPa
277.71 K | 0.0007597 kPa
278.2 K | 0.0008032 kPa
278.69 K | 0.0008442 kPa
279.18 K | 0.0008873 kPa
279.66 K | 0.0009341 kPa
280.15 K | 0.0009819 kPa
280.64 K | 0.001035 kPa
281.12 K | 0.001093 kPa
281.47 K | 0.001128 kPa
282.96 K | 0.001314 kPa
283.48 K | 0.001386 kPa
284.46 K | 0.001532 kPa
284.96 K | 0.001613 kPa
285.43 K | 0.001692 kPa
285.64 K | 0.00173 kPa
285.74 K | 0.001743 kPa
285.95 K | 0.001776 kPa
286.44 K | 0.001869 kPa
286.95 K | 0.001967 kPa
287.44 K | 0.002063 kPa
287.94 K | 0.002166 kPa and 0.002174 kPa
288.93 K | 0.002392 kPa
289.31 K | 0.002487 kPa
289.43 K | 0.002508 kPa
290.42 K | 0.002759 kPa
290.53 K | 0.002791 kPa
290.92 K | 0.002894 kPa
291.81 K | 0.003154 kPa
291.92 K | 0.003182 kPa
292.42 K | 0.003341 kPa
292.9 K | 0.003501 kPa
293.41 K | 0.00367 kPa
293.91 K | 0.003845 kPa
294.3 K | 0.00399 kPa
294.9 K | 0.004224 kPa
295.4 K | 0.004415 kPa
295.51 K | 0.004442 kPa
295.9 K | 0.004625 kPa
296.39 K | 0.004836 kPa
296.77 K | 0.004989 kPa
297.39 K | 0.005295 kPa
297.89 K | 0.005534 kPa
297.98 K | 0.005566 kPa
298.88 K | 0.006057 kPa
299.38 K | 0.006339 kPa
300.37 K | 0.00692 kPa
300.46 K | 0.006953 kPa
300.87 K | 0.007243 kPa
301.87 K | 0.007893 kPa
302.37 K | 0.008238 kPa
302.84 K | 0.008517 kPa
302.94 K | 0.008627 kPa
303.36 K | 0.008981 kPa
303.76 K | 0.009236 kPa
303.81 K | 0.0093 kPa
303.82 K | 0.009286 kPa and 0.009287 kPa
303.86 K | 0.00937 kPa
304.85 K | 0.0102 kPa and 0.01021 kPa
305.24 K | 0.01047 kPa
305.26 K | 0.01052 kPa
305.29 K | 0.01057 kPa
305.35 K | 0.01065 kPa
305.42 K | 0.01069 kPa
307.68 K | 0.01286 kPa
308.6 K | 0.01393 kPa
308.64 K | 0.014 kPa
310.04 K | 0.0157 kPa
310.06 K | 0.01581 kPa
310.09 K | 0.0158 kPa
310.1 K | 0.01574 kPa
310.14 K | 0.01575 kPa
312.52 K | 0.01912 kPa
313.44 K | 0.02065 kPa
313.47 K | 0.0207 kPa
314.89 K | 0.02316 kPa
314.94 K | 0.0232 kPa
317.35 K | 0.02798 kPa and 0.02794 kPa
317.42 K | 0.02817 kPa
318.24 K | 0.0299 kPa
318.28 K | 0.03012 kPa
319.72 K | 0.0337 kPa
319.78 K | 0.03379 kPa and 0.03376 kPa
322.16 K | 0.04037 kPa
322.2 K | 0.0406 kPa
322.27 K | 0.04082 kPa
323.11 K | 0.04344 kPa
324.57 K | 0.04813 kPa
324.61 K | 0.04845 kPa
324.63 K | 0.04869 kPa
327.04 K | 0.05787 kPa
327.09 K | 0.05806 kPa
327.93 K | 0.06147 kPa
327.97 K | 0.06194 kPa
329.38 K | 0.06819 kPa
329.43 K | 0.06843 kPa
329.46 K | 0.06916 kPa
329.51 K | 0.0691 kPa
330.86 K | 0.07578 kPa
331.89 K | 0.08137 kPa
331.9 K | 0.08129 kPa
331.96 K | 0.08174 kPa
332.78 K | 0.08635 kPa
334.24 K | 0.09568 kPa
334.28 K | 0.09573 kPa
334.33 K | 0.09658 kPa and 0.09631 kPa
334.38 K | 0.09672 kPa
335.68 K | 0.1054 kPa
336.74 K | 0.1133 kPa
336.79 K | 0.1135 kPa
337.62 K | 0.1198 kPa
339.09 K | 0.1322 kPa
339.17 K | 0.1333 kPa
339.24 K | 0.1341 kPa
340.51 K | 0.1449 kPa
340.55 K | 0.1456 kPa
341.5 K | 0.1546 kPa
341.58 K | 0.1555 kPa
341.63 K | 0.1564 kPa
341.66 K | 0.157 kPa
348.04 K | 0.2325 kPa
352.92 K | 0.3135 kPa
357.8 K | 0.4166 kPa
362.67 K | 0.5493 kPa
367.55 K | 0.7207 kPa
372.43 K | 0.9271 kPa
374.86 K | 1.054 kPa
377.3 K | 1.195 kPa

CCCCCCCCCCCCCCCCC(=O)OC [methyl heptadecanoate]
Transpiration method
Settings | vapor or sublimation pressure [kPa]
337.9 K | 0.000259
339.75 K | 0.000298
341.8 K | 0.000371
342.85 K | 0.000395
345.85 K | 0.000532
347.95 K | 0.000685
350 K | 0.000803
354.3 K | 0.00114
357.5 K | 0.00144
360.6 K | 0.00195
362.5 K | 0.00206
365.25 K | 0.00272
366.85 K | 0.00301
369 K | 0.00377
372.3 K | 0.00464
376.2 K | 0.0058
379.2 K | 0.00772
382.25 K | 0.0089
385.65 K | 0.0111
387 K | 0.0126
389.25 K | 0.0152
391.3 K | 0.0176
393.4 K | 0.0186
396.2 K | 0.0246
399.2 K | 0.0302
402.35 K | 0.0355
405.3 K | 0.044
408.15 K | 0.0523
412.2 K | 0.0635
